Test results from PMC6832239, “The Effects of a Novel Series of KTTKS Analogues on Cytotoxicity and Proteolytic Activity” (Molecules, 2019).
Entries after “also recorded” stand apart in the source; their conditions may differ. Read-outs that look alike come from different tables or passages of the source. Residues, ends and D or L forms follow the SMILES beside them.

Assays:
[1] = biological target: T1, urokinase (Homo sapiens, UniProt P00749); experiment: Amidolytic activity of urokinase (chromogenic substrate pyro-Glu-Gly-Arg-pNA); format: biochemical
T1 construct: purchased Sigma (Schnelldorf, Germany)
Protocol: (§1) The determination of amidolytic activity was performed as previously described by Okada. A detailed description of the method is given below: 0.2 mL of the examined peptides (0.15 M NaCl as contro), a buffer, and 0.1 mL of enzyme solution were mixed. The final peptide concentrations were: 0.2 mM, 2 mM, and 20 mM. The mixture was incubated at 37 °C for 3 min; then the synthetic substrate solution was added in the same buffer. After 20 min of incubation, the reaction was stopped by adding 0.1 mL of 50% acetic acid and the absorbance of the released p-nitroaniline was measured at 405 nm. The mean values from three independent experiments done in duplicate are presented. A method error of 5% was adopted as statistical error. IC50 value was considered as the concentration of inhibitor that reduces absorbance by 50%, compared with absorbance measured under the same conditions without an inhibitor. IC50 was calculated mathematically by extrapolation using a linear plot. IC50 values are presented in Table 1 and Table 2, and graphically in Figure 1.
(§2) The buffers and the enzyme solutions included: • Tris buffer—0.6 mL (pH 8.8), enzyme: urokinase (50 units/mL), synthetic substrate: pyro-Glu-Gly-Arg-pNA·HCl (0.1 mL, 3 mM); • Tris buffer—0.5 mL (pH 8.4), enzyme: thrombin (1 units/mL), synthetic substrate: H-D-Phe-Pip-Arg-pNA (0.2 mL, 0.75 mM); • Tris buffer—0.5 mL (pH 7.4), enzyme: plasmin (0.4 units/mL), synthetic substrate: H-D-Val-Leu-Lys-pNA (0.2 mL, 3 mM); • Borate buffer—0.5 mL (pH 7.5), enzyme: trypsin (0.4 units/mL), synthetic substrate: Bzl-L-Arg-pNA·HCl (0.2 mL, 8 mM); • Tris buffer—0.6 mL (pH 9.0), enzyme: kallikrein (3 units/mL), synthetic substrate: H-D-Val-Leu-Arg-pNA·2HCl (0.1 mL, 75 mM); • Tris buffer—0.6 mL (pH 8.4), enzyme: t-PA ([…]), synthetic substrate: H-D-Ile-Pro-Arg-pNA (0.1 mL, 10 mM) • Tris buffer—0.6 mL (pH 9.0), enzyme: chymotrypsin (0.4 units/mL), synthetic substrate: Suc-Phe-pNA (0.2 mL, 8 mM)

[2] = biological target: T2, plasmin (Homo sapiens, UniProt P00747); experiment: Amidolytic activity of plasmin (chromogenic substrate H-D-Val-Leu-Lys-pNA); format: biochemical; details: for IC50: amidolytic activity, Tris pH 7.4, 37 °C, IC50 by extrapolation using a linear plot, error 5%, read-out: IC50 Plasmin
T2 construct: purchased Chromogenix (Milano, Italy)
Protocol: as §1, §2

[3] = Viability of fibroblast cells, MTT assay; format: cell-based, Human; details: human, primary dermal fibroblast cells, 24 h, MTT, ± 2, read-out: Viability of fibroblast cells
Protocol: (§3) Viability of fibroblast cells was examined with the use of the MTT assay. MTT, a yellow tetrazole, is reduced to purple formazan only in living cells. Absorbance of the coloured solution was measured by a spectrophotometer.
(§4) These studies were performed on primary dermal fibroblasts cells. The cells were maintained in DMEM supplemented with 10% fetal bovine serum (FBS), 2 mM glutamin, 50 U/mL penicillin and […] streptomycin at 37 °C in a 5% CO2 incubator. For experiments, cells cultures were plated at a density of 1 × 10^6/well in six-well culture plates (Costar, St. Louis, MO, USA) in 2 mL of growth medium. Cells reached about 80% of confluency at day 2 were used for the assays.
(§5) Toxicity of the tested substances was determined using an MTT [3-(4,5-dimethylthiazol-2-yl)-2,5-diphenyltetrazolium bromide)] assay. Palmitoyl and lipoyl peptides were dissolved in DMSO (dimethyl sulfoxide), the other peptides in DMEM, and added to the cell culture medium. Simultaneously, the same concentrations of DMSO without peptides were added to cells, serving as controls. The final peptide concentrations were: 1 μM, 10 μM, and 100 μM. After 24 h incubation, the cells cultured with the tested compounds were washed with phosphate-buffered saline (PBS) and then incubated for 4 h in 2 mL of MTT solution (5 mg/mL). After removing the medium, the cells were lysed in 200 μL of DMSO with 20 μL of Sorensen’s buffer (pH 10.5, 0.1 mol/L glycine with 0.1 mol/L NaCl). The absorbance of converted dye in living cells was measured at a wavelength of 570 nm. The mean values ± SD from three independent experiments done in duplicate are presented.

[4] = biological target: T3, thrombin (Bos taurus, UniProt P00735); experiment: Amidolytic activity of thrombin (chromogenic substrate H-D-Phe-Pip-Arg-pNA); format: biochemical; details: for IC50: amidolytic activity, Tris pH 8.4, 37 °C, IC50 by extrapolation using a linear plot, error 5%, read-out: IC50 Thrombin
T3 construct: purchased Lubelska Wytwórnia Szczepionek (Lublin, Poland)
Protocol: The determination of amidolytic activity was performed as previously described by Okada. A detailed description of the method is given below: 0.2 mL of the examined peptides (0.15 M NaCl as contro), a buffer, and 0.1 mL of enzyme solution were mixed. The final peptide concentrations were: 0.2 mM, 2 mM, and 20 mM. The mixture was incubated at 37 °C for 3 min; then the synthetic substrate solution was added in the same buffer. […] The mean values from three independent experiments done in duplicate are presented. A method error of 5% was adopted as statistical error. […] IC50 was calculated mathematically by extrapolation using a linear plot.

[5] = test system: fibroblast cells; experiment: DNA biosynthesis, [3H] thymidine incorporation in fibroblasts; format: cell-based, Human; details: for DNA biosynthesis: 24 h, ± 2
Protocol: In the radioactive method of DNA measurement in the liquid sample, the radioactive activity of the sample was measured. This technique involves mixing a radioactive material with a scintillation fluid/liquid (which contains a scintillator), resulting in photon emission. This emission is counted by a suitable detector.
To examine the effect of the studied compounds on DNA biosynthesis of fibroblast cells, they were plated in 24-well tissue culture dishes at 1 × 10^5 cells per well with 1 mL of growth medium. The plates were incubated after 48 h with the examined peptides and 0.5 μCi of [^3H] thymidine (6.7 Ci/mmol) at 37 °C. The final peptide concentrations were: 10 μM, 50 μM, and 100 μM. After 24 h incubation, the cells were rinsed with PBS three times and twice with 5% trichloroacetic acid. To measure the radioactivity incorporated into DNA, the cells were solubilized with 1 mL of 0.1 M sodium hydroxide containing 1% SDS and an addition of scintillation liquid (9 mL) (https://www.perkinelmer.com/pl/category/scintillation-cocktails). Radioactivity was determined in a scintillation counter, i.e., Liquid Scintillation Analyzer Tri-Carb 2810 TR (Perkin Elmer, Waltham, MA USA)) with Quanto Smart TM software (Perkin Elmer).

[6] = test system: primary dermal fibroblasts cells; experiment: Viability of fibroblast cells, MTT assay; format: cell-based, Human; details: MTT, 1-100 μM, 24 h
Protocol: as §3, §4, §5

[7] = test system: Fibroblasts; experiment: Collagen biosynthesis, 5[3H]-proline incorporation in fibroblasts; format: cell-based, Human; details: 24 h, ± 2
Protocol: In collagen biosynthesis assays cells were counted in a haemocytometer and incorporation of a radioactive precursor 5[^3H]-proline into collagen was measured. Total protein synthesis was calculated from the sum of radioactivity of collagenase-resistant proteins and collagen digest.
Fibroblasts were cultured in six-well plates until confluence. Then they were incubated for 24 h in growth medium in the absence or presence of the tested peptides and 5[^3H]-proline (5 µCi/mL, 28 Ci/mM). The final peptide concentrations were: 10 μM, 50 μM and 100 μM. In accordance with the method proposed by Peterkofsky and Diegelmann, incorporation of the radioactive precursor into collagen was determined by digesting the proteins with purified Clostridium histolyticum collagenase. Finally, the monolayers were washed with sterile 10mM PBS, pH 7.4 four times, and cell membranes were disrupted using a sonicator. Aliquots of the cell homogenate were removed for protein measurement using the BCA™ Protein Assay Kit (Pierce, Waltham, MA USA). The results are shown as combined values for cell plus medium fractions.

[8] = amidolytic activity, Tris pH 8.8, 37 °C, IC50 by extrapolation using a linear plot, error 5%, read-out: IC50 Urokinase

T2 sequence (P00747 581-810 limits assumed): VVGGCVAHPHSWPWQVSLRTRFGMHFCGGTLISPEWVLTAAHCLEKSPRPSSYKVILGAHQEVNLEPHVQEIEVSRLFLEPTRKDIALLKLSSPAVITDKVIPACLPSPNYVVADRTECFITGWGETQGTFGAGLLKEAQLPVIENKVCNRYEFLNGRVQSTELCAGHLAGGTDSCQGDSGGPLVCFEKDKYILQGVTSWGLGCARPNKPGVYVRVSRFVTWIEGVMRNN
T2 sequence (P00747 97-580 partner limits assumed): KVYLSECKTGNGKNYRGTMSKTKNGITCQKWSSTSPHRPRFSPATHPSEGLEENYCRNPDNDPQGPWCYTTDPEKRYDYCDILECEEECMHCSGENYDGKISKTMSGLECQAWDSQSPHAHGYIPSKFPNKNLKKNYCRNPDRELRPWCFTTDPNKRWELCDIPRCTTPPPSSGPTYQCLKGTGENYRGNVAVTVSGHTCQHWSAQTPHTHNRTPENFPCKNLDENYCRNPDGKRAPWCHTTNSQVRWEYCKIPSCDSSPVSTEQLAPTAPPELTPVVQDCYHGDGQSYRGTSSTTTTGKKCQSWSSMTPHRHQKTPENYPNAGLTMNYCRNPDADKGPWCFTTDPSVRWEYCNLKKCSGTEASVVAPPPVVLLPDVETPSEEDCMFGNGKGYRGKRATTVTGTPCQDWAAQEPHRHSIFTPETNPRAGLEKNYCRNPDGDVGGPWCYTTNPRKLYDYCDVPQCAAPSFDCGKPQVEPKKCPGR

| Compound | level of inhibition of urokinase activity [1] | level of inhibition of plasmin activity [2] | level of inhibition of thrombin activity [4] | IC50 [4] [µM] | IC50 [1, 8] [µM] | IC50 [2] [µM] | IC50 ([1]; converted from IC50 of Table 1, read-out: -logIC50 Urokinase (converted)) [µM] | viability at 24 h, 1 µmol/L [3] [%] | viability at 24 h, 10 µmol/L [3] [%] | viability at 24 h, 100 µmol/L [3] [%] | DNA biosynthesis ([5]; 10 µmol/L) | DNA biosynthesis ([5]; 50 µmol/L) | DNA biosynthesis ([5]; 100 µmol/L) | DNA synthesis ([5]; 10, 50, 100 μM) | cytotoxicity / cell growth effect on fibroblasts [6] | Collagen biosynthesis ([7]; 10 µmol/L) | Collagen biosynthesis ([7]; 50 µmol/L) | Collagen biosynthesis ([7]; 100 µmol/L) |
| --- | --- | --- | --- | --- | --- | --- | --- | --- | --- | --- | --- | --- | --- | --- | --- | --- | --- | --- |
| CCCCCCCCCCCCCCCC(=O)N[C@@H](CCCNC(=N)N)C(=O)N[C@H](C(=O)N[C@H](C(=O)N[C@@H](CCCCN)C(=O)N[C@@H](CO)C(=O)O)[C@@H](C)O)[C@@H](C)O [Peptide 28, Pal-Arg-Thr-Thr-Lys-Ser-OH] (HELM PEPTIDE1{[CCCCCCCCCCCCCCCC(=O)[*:2]].R.T.T.K.S}$$$$V2.0) | above 90% | above 90% | above 90% | – | – | – | – | 104 | 103 | 106 | – | – | – | – | – | – | – | – |
| Ac-KTTKS-NH2 [Peptide 6, Ac-Lys-Thr-Thr-Lys-Ser-NH2] | – | – | – | 3250 ± 160 | > 20000 | 2920 ± 150 | – | 97 | 88 | 86 | – | – | – | – | – | – | – | – |
| Ac-KTTRS-NH2 [Peptide 14, Ac-Lys-Thr-Thr-Arg-Ser-NH2] | – | – | – | 2950 ± 150 | 5560 ± 280 | 5340 ± 270 | – | 112 | 135 | 150 | 114 % of Control | 96 % of Control | 127 % of Control | an increase in DNA synthesis was observed | exhibited cell growth effects; also recorded: showed proliferative effect; also recorded: exhibited the effect of cell growth | 105 % of Control | 171 % of Control | 157 % of Control |

More lines, main results first:

| level of inhibition of urokinase activity [1] | level of inhibition of plasmin activity [2] | level of inhibition of thrombin activity [4] | IC50 [4] [µM] | IC50 [1, 8] [µM] | IC50 [2] [µM] | IC50 ([1]; converted from IC50 of Table 1, read-out: -logIC50 Urokinase (converted)) [µM] | Compound | viability at 24 h, 1 µmol/L [3] [%] | viability at 24 h, 10 µmol/L [3] [%] | viability at 24 h, 100 µmol/L [3] [%] | DNA biosynthesis ([5]; 10 µmol/L) | DNA biosynthesis ([5]; 50 µmol/L) | DNA biosynthesis ([5]; 100 µmol/L) | DNA synthesis ([5]; 10, 50, 100 μM) | cytotoxicity / cell growth effect on fibroblasts [6] | Collagen biosynthesis ([7]; 10 µmol/L) | Collagen biosynthesis ([7]; 50 µmol/L) | Collagen biosynthesis ([7]; 100 µmol/L) |
| --- | --- | --- | --- | --- | --- | --- | --- | --- | --- | --- | --- | --- | --- | --- | --- | --- | --- | --- |
| above 90% | above 90% | above 90% | < 200 | – | – | – | CCCCCCCCCCCCCCCC(=O)N[C@@H](CCCNC(=N)N)C(=O)N[C@H](C(=O)N[C@H](C(=O)N[C@@H](CCCNC(=N)N)C(=O)N[C@@H](CO)C(=O)O)[C@@H](C)O)[C@@H](C)O [Peptide 20, Pal-Arg-Thr-Thr-Arg-Ser-OH] (HELM PEPTIDE1{[CCCCCCCCCCCCCCCC(=O)[*:2]].R.T.T.R.S}$$$$V2.0) | 90 | 90 | 103 | – | – | – | – | – | – | – | – |
| – | – | – | 2200 ± 110 | 3880 ± 190 | 2780 ± 140 | – | Ac-KTTKS-OH [Peptide 2, Ac-Lys-Thr-Thr-Lys-Ser-OH] | 98 | 88 | 82 | – | – | – | – | – | – | – | – |
| – | – | – | 2890 ± 140 | – | 2240 ± 110 | 4790 | Ac-KTTRS-OH [Peptide 10, Ac-Lys-Thr-Thr-Arg-Ser-OH] | 104 | 100 | 94 | – | – | – | – | – | – | – | – |
